The record followed here is patent publication US4302458A, “Phthalidyl-isoquinoline derivatives” (Laborec Laboratoire de Recherches Biologiques, priority 1979, dated 1981).

One series relates to histidine decarboxylase. Nature of the series: Histidine decarboxylase activity of guinea-pig kidneys after in vivo administration. Conditions: for Activity expressed in % inhibition of the enzyme: guinea-pig renal enzyme, sacrificed five hours after administration, vs control animals. An excerpt: The activity of the compound 458 L was compared with that of tritoqualine, which is, to the Applicants' knowledge, the only product used therapeutically for this objective. The technique for measuring the histadine decarboxylase activity of guinea-pig kidneys has been described by B. Kosmicki et al (J. Pharmacol. Paris 1974-5-3-331-342). The guinea-pigs were sacrificed five hours after administering the substances under investigation. The percentage reduction in the activity of the renal enzyme of the treated animals was determined with respect to control animals.

Series [1] is described as follows: Acute toxicity (LD 50), oral route, mice. Conditions: mouse, in vivo. Here is the method:
(§1) The toxicity was determined in the conventional manner.

The next series has as its system mice. Conditions: mouse, in vivo. As to the method: as §1

Consider `CCOc1c(N)c2c(c(OCC)c1OCC)C(C1c3c(cc4c(c3OC)OCO4)CCN1C)OC2=O` (centres unmarked) [Tritoqualine, tritoqualine, reference compound], for which the “Activity expressed in % inhibition of the enzyme” value with histidine decarboxylase (dosage 10 mg/kg) turned out to be 10%; in the series on histidine decarboxylase (dosage 20 mg/kg), 20%; with histidine decarboxylase (dosage 40 mg/kg), 20%; in the series on histidine decarboxylase (dosage 60 mg/kg), 22%.

As to `CCOc1c(N)c2c(c(OCC)c1OCC)C(C1c3c(cc(OC)c(OC)c3OC)CCN1C)OC2=O` (centres unmarked) [458 L, 2-methyl-6,7,8-trimethoxy-1[4,5,6-triethoxy-7-amino-3-phthalidyl]-1,2,3,4-tetrahydro-isoquinoline], the LD50 in series [1] was approximately 6000 mg/kg. The “chronic toxicity (tolerance)” value in the series on mice was “well tolerated”. Further, the “Activity expressed in % inhibition of the enzyme” value came out at 14% in the series on histidine decarboxylase (dosage 10 mg/kg), 21% with histidine decarboxylase (dosage 20 mg/kg), 31% in the series with histidine decarboxylase (dosage 40 mg/kg) and 41% in the series on histidine decarboxylase (dosage 60 mg/kg). Further, in the series on histidine decarboxylase (in vivo), the “in vivo inhibition of histidine decarboxylase (in words)” value is recorded as “inhibiting in vivo the action of the enzyme histidine decarboxylase”.
